Patent US20240269298A1, “PHOSPHONYL DERIVATIVE, AND COMPOSITION AND PHARMACEUTICAL APPLICATION THEREOF” (XIZANG HAISCO PHARMACEUTICAL CO., LTD., priority 2021, published 2024)
pIC50: −log10 of the molar value. Where two headings read alike, the source gives them in different places.

Tested on: NCI-H1975 (EGFR-L858R-T790M) cells
Assay: Inhibitory activity on proliferation of NCI-H1975 (EGFR-L858R-T790M) cells (CTG, 72 h)
Type: cell-based
Conditions: Homo sapiens
Protocol: NCI-H1975 (EGFR-L858R-T790M) and A431 (EGFR-WT) cells were purchased from ATCC and cultured in an incubator at 37° C. with 5% CO2, and the culture mediums were RPMI1640+10% FBS and DMEM+10% FBS, respectively. On the first day, NCI-H1975 (EGFR-L858R-T790M) and A431 (EGFR-WT) cells in the logarithmic phase were collected, and viable cells were counted using an automatic cell analyzer (countstar). The cell suspensions were adjusted with the culture mediums and plated on a 96-well cell culture plate at 1000 cells/well for NCI-H1975 (EGFR-L858R-T790M) cells and at 3000 cells/well for A431 cells. The next day, the culture mediums were aspirated, and 90 μL of fresh culture mediums and 10 μL of the compounds at different concentrations were added to each well, wherein the final concentration of DMSO in each well was 0.1%. The plate was cultured in the incubator at 37° C. with 5% CO2 for 72 hours. After 72 hours of drug treatment, 50 μL of CTG solution (promega, G7572), which was already pre-melted and equilibrated to room temperature, was added to each well, and the mixtures were uniformly mixed for 2 min using a microplate shaker. The plate was placed at room temperature for 10 min, and then […] signal values were measured using a microplate reader (PHERAstar FSX).
Surviving cells % was calculated based on Vsample/Vvehicle control×100%, wherein Vsample was the readout of the drug-treated group, and Vvehicle control was the average value of the vehicle control group. Using the origin 9.2 software and nonlinear regression model, S-shaped dose-survival curves were plotted, and IC50 values were calculated.

[1] = read-out: IC50 (value in brackets)

COc1cc(N2CCC3(CCN(Cc4cccc(NC5CCC(=O)NC5=O)c4)CC3)CC2)c(-c2cnn(C)c2)cc1Nc1ncc(Cl)c(Nc2ccc(-c3ccccc3)cc2P(C)(C)=O)n1 (stereo not drawn) [Compound 130, 3-((3-((9-(4-((5-chloro-4-((3-(dimethylphosphoryl)-[1,1′-biphenyl]-4-yl)amino)pyrimidin-2-yl)amino)-5-methoxy-2-(1-methyl-1H-pyrazol-4-yl)phenyl)-3,9-diazaspiro[5.5]undecan-3-yl)methyl)phenyl)amino)piperidine-2,6-dione]
pIC50 (read-out: IC50 (class symbol)): 6.30 to 7.00
pIC50 [1]: 6.93

COc1cc(N2CCC(N3CCC(CN4CCN(c5ccc6c(c5)C(=O)N(C5CCC(=O)NC5=O)C6=O)CC4)CC3)CC2)c(-c2cnn(C)c2)cc1Nc1ncc(Cl)c(Nc2ccc3nccnc3c2P(C)(C)=O)n1 (stereo not drawn) [Compound 8, 5-(4-((1′-(4-((5-chloro-4-((5-(dimethylphosphoryl)quinoxalin-6-yl)amino)pyrimidin-2-yl)amino)-5-methoxy-2-(1-methyl-1H-pyrazol-4-yl)phenyl)-[1,4′-bipiperidin]-4-yl)methyl)piperazin-1-yl)-2-(2,6-dioxopiperidin-3-yl)isoindoline-1,3-dione]
pIC50 (read-out: IC50 (class symbol)): > 7.00
pIC50 [1]: 7.47

COc1cc(N2CCC(CN3CCC4(CC3)CCN(c3ccc(C(=O)NC5CCC(=O)NC5=O)nc3)CC4)CC2)c(-c2cnn(C)c2)cc1Nc1ncc(Cl)c(Nc2ccc(-c3ccccc3)cc2P(C)(C)=O)n1 (stereo not drawn) [Compound 70, 5-(9-((1-(4-((5-chloro-4-((3-(dimethylphosphoryl)-[1,1′-biphenyl]-4-yl)amino)pyrimidin-2-yl)amino)-5-methoxy-2-(1-methyl-1H-pyrazol-4-yl)phenyl)piperidin-4-yl)methyl)-3,9-diazaspiro[5.5]undecan-3-yl)-N-(2,6-dioxopiperidin-3-yl)picolinamide]
pIC50 (read-out: IC50 (class symbol)): > 7.00
pIC50 [1]: 7.41

COc1cc(N2CCN(C3CCN(CC4CCN(c5ccc6c(c5)C(=O)N(C5CCC(=O)NC5=O)C6=O)CC4)CC3)CC2)c(-c2cnn(C)c2)cc1Nc1ncc(Cl)c(Nc2ccc3nccnc3c2P(C)(C)=O)n1 (stereo not drawn) [Trifluoroacetate of compound 12, 5-(4-((4-(4-(4-((5-chloro-4-((5-(dimethylphosphoryl)quinoxalin-6-yl)amino)pyrimidin-2-yl)amino)-5-methoxy-2-(1-methyl-1H-pyrazol-4-yl)phenyl)piperazin-1-yl)piperidin-1-yl)methyl)piperidin-1-yl)-2-(2,6-dioxopiperidin-3-yl)isoindoline-1,3-dione]
pIC50 (read-out: IC50 (class symbol)): > 7.00
pIC50 [1]: 7.23

COc1cc(N2CCC(N3CCN(c4ccc5c(c4)C(=O)N(C4CCC(=O)NC4=O)C5=O)CC3)CC2)c(-c2cnn(C)c2)cc1Nc1ncc(Br)c(Nc2ccccc2P(C)(C)=O)n1 (stereo not drawn) [Compound 114, 5-(4-(1-(4-((5-bromo-4-((2-(dimethylphosphoryl)phenyl)amino)pyrimidin-2-yl)amino)-5-methoxy-2-(1-methyl-1H-pyrazol-4-yl)phenyl)piperidin-4-yl)piperazin-1-yl)-2-(2,6-dioxopiperidin-3-yl)isoindoline-1,3-dione]
pIC50 (read-out: IC50 (class symbol)): > 7.00
pIC50 [1]: 7.22

COc1cc(N2CCC(CN3CCN(c4ccc(N5CCC(=O)NC5=O)cc4)CC3)CC2)c(-c2cnn(C)c2)cc1Nc1ncc(Cl)c(Nc2ccc(-c3ccccc3)cc2P(C)(C)=O)n1 [Compound 136, 1-(4-(4-((1-(4-((5-chloro-4-((3-(dimethylphosphoryl)-[1,1′-biphenyl]-4-yl)amino)pyrimidin-2-yl)amino)-5-methoxy-2-(1-methyl-1H-pyrazol-4-yl)phenyl)piperidin-4-yl)methyl)piperazin-1-yl)phenyl)dihydropyrimidine-2,4(1H,3H)-dione]
pIC50 (read-out: IC50 (class symbol)): 6.30 to 7.00
pIC50 [1]: 6.41

COc1cc(N2CCC(CN3CCC4(CCCN(c5ccc6c(c5)C(=O)N(C5CCC(=O)NC5=O)C6=O)C4)CC3)CC2)c(-c2cnn(C)c2)cc1Nc1ncc(Cl)c(Nc2ccc3nccnc3c2P(C)(C)=O)n1 (stereo not drawn) [Compound 10, 5-(9-((1-(4-((5-chloro-4-((5-(dimethylphosphoryl)quinoxalin-6-yl)amino)pyrimidin-2-yl)amino)-5-methoxy-2-(1-methyl-1H-pyrazol-4-yl)phenyl)piperidin-4-yl)methyl)-2,9-diazaspiro[5.5]undecan-2-yl)-2-(2,6-dioxopiperidin-3-yl)isoindoline-1,3-dione]
pIC50 (read-out: IC50 (class symbol)): > 7.00
pIC50 [1]: 7.89

COc1cc(N2CCC(CN3CCC4(CC3)CCN(c3cc5c(cc3F)C(=O)N(C3CCC(=O)NC3=O)C5=O)CC4)CC2)c(-c2cnn(C)c2)cc1Nc1ncc(Cl)c(Nc2ccc(-c3ccccc3)cc2P(C)(C)=O)n1 (stereo not drawn) [Compound 52, 5-(9-((1-(4-((5-chloro-4-((3-(dimethylphosphoryl)-[1,1′-biphenyl]-4-yl)amino)pyrimidin-2-yl)amino)-5-methoxy-2-(1-methyl-1H-pyrazol-4-yl)phenyl)piperidin-4-yl)methyl)-3,9-diazaspiro[5.5]undecan-3-yl)-2-(2,6-dioxopiperidin-3-yl)-6-fluoroisoindoline-1,3-dione]
pIC50 (read-out: IC50 (class symbol)): > 7.00
pIC50 [1]: 7.08

COc1cc(N2CCC3(CC2)CN(CC2CCN(c4cc5c(cc4F)C(=O)N(C4CCC(=O)NC4=O)C5=O)CC2)C3)c(-c2cnn(C)c2)cc1Nc1ncc(Cl)c(Nc2ccc(-c3ccccc3)cc2P(C)(C)=O)n1 (stereo not drawn) [Compound 94, 5-(4-((7-(4-((5-chloro-4-((3-(dimethylphosphoryl)-[1,1′-biphenyl]-4-yl)amino)pyrimidin-2-yl)amino)-5-methoxy-2-(1-methyl-1H-pyrazol-4-yl)phenyl)-2,7-diazaspiro[3.5]nonan-2-yl)methyl)piperidin-1-yl)-2-(2,6-dioxopiperidin-3-yl)-6-fluoroisoindoline-1,3-dione]
pIC50 (read-out: IC50 (class symbol)): > 7.00
pIC50 [1]: 7.11

COc1cc(N2CCC(CN3CCN(c4ccc(NC5CCC(=O)NC5=O)cc4F)CC3)CC2)c(-c2cnn(C)c2)cc1Nc1ncc(Cl)c(Nc2ccc(C3CC3)cc2P(C)(C)=O)n1 (stereo not drawn) [Compound 158, 3-((4-(4-((1-(4-((5-chloro-4-((4-cyclopropyl-2-(dimethylphosphoryl)phenyl)amino)pyrimidin-2-yl)amino)-5-methoxy-2-(1-methyl-1H-pyrazol-4-yl)phenyl)piperidin-4-yl)methyl)piperazin-1-yl)-3-fluorophenyl)amino)piperidine-2,6-dione]
pIC50 (read-out: IC50 (class symbol)): > 7.00
pIC50 [1]: 7.59

COc1cc(N2CCC(N3CCC(CN4CCN(c5ccc6c(c5)C(=O)N(C5CCC(=O)NC5=O)C6=O)CC4)CC3)CC2)c(-c2cnn(C)c2)cc1Nc1ncc(Br)c(Nc2ccc(-c3ccccc3)cc2P(C)(C)=O)n1 (stereo not drawn) [Compound 43, 5-(4-((1′-(4-((5-bromo-4-((3-(dimethylphosphoryl)-[1,1′-biphenyl]-4-yl)amino)pyrimidin-2-yl)amino)-5-methoxy-2-(1-methyl-1H-pyrazol-4-yl)phenyl)-[1,4′-bipiperidin]-4-yl)methyl)piperazin-1-yl)-2-(2,6-dioxopiperidin-3-yl)isoindoline-1,3-dione]
pIC50 (read-out: IC50 (class symbol)): > 7.00
pIC50 [1]: 7.10

COc1cc(N2CCC(N3CCN(CC4CCN(c5cc6c(cc5F)C(=O)N(C5CCC(=O)NC5=O)C6=O)CC4)CC3)CC2)c(-c2cnn(C)c2)cc1Nc1ncc(Br)c(Nc2ccc3nccnc3c2P(C)(C)=O)n1 (stereo not drawn) [Compound 29, 5-(4-((4-(1-(4-((5-bromo-4-((5-(dimethylphosphoryl)quinoxalin-6-yl)amino)pyrimidin-2-yl)amino)-5-methoxy-2-(1-methyl-1H-pyrazol-4-yl)phenyl)piperidin-4-yl)piperazin-1-yl)methyl)piperidin-1-yl)-2-(2,6-dioxopiperidin-3-yl)-6-fluoroisoindoline-1,3-dione]
pIC50 (read-out: IC50 (class symbol)): > 7.00
pIC50 [1]: 7.48

COc1cc(N2CCN(C[C@H]3CCN(c4ccc5c(c4)C(=O)N(C4CCC(=O)NC4=O)C5=O)C3)CC2)c(-c2cnn(C)c2)cc1Nc1ncc(Br)c(Nc2ccccc2P(C)(C)=O)n1 (stereo partly drawn) [Compound 122, 5-((R)-3-((4-(4-((5-bromo-4-((2-(dimethylphosphoryl)phenyl)amino)pyrimidin-2-yl)amino)-5-methoxy-2-(1-methyl-1H-pyrazol-4-yl)phenyl)piperazin-1-yl)methyl)pyrrolidin-1-yl)-2-(2,6-dioxopiperidin-3-yl)isoindoline-1,3-dione]
pIC50 (read-out: IC50 (class symbol)): > 7.00
pIC50 [1]: 7.80

COc1cc(N2CCN(C3CCN(CC4CCN(c5ccc6c(c5)C(=O)N(C5CCC(=O)NC5=O)C6=O)CC4)CC3)CC2)c(C2CC2)cc1Nc1ncc(Cl)c(Nc2ccc3nccnc3c2P(C)(C)=O)n1 (stereo not drawn) [Compound 26, 5-(4-((4-(4-(4-((5-chloro-4-((5-(dimethylphosphoryl)quinoxalin-6-yl)amino)pyrimidin-2-yl)amino)-2-cyclopropyl-5-methoxyphenyl)piperazin-1-yl)piperidin-1-yl)methyl)piperidin-1-yl)-2-(2,6-dioxopiperidin-3-yl)isoindoline-1,3-dione]
pIC50 (read-out: IC50 (class symbol)): 6.30 to 7.00
